In PubChem BioAssay (NCI):
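Each compound was tested at five concentrations against cells in 96-well plates for 48 hours. Here, GI50 denotes the concentration required for 50% inhibition of growth. TGI: total growth inhibition.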

Key:
Assay in all cases: growth of human tumour cells (NCI), 48 h
[1] = test system: BT-549 breast
[2] = test system: HS 578T breast
[3] = test system: KM12 colon
[4] = test system: LOX IMVI melanoma
[5] = test system: OVCAR-5 ovarian
[6] = test system: SF-268 CNS
[7] = test system: SF-539 CNS
[8] = test system: SK-MEL-2 melanoma
[9] = test system: UACC-257 melanoma
[10] = test system: UO-31 renal

Row | Structure (SMILES) | GI50 [1] [µM] | TGI [1] [µM] | GI50 [2] [µM] | TGI [2] [µM] | GI50 [3] [µM] | TGI [3] [µM] | GI50 [4] [µM] | TGI [4] [µM] | GI50 [5] [µM] | TGI [5] [µM] | GI50 [6] [µM] | TGI [6] [µM] | GI50 [7] [µM] | TGI [7] [µM] | GI50 [8] [µM] | TGI [8] [µM] | GI50 [9] [µM] | TGI [9] [µM] | GI50 [10] [µM] | TGI [10] [µM]
1 | COc1ccc(/C=C(\C#N)n2nnc3c(F)cccc32)cc1 | 0.433 | > 34.6 | 0.309 | 1.98 | 0.39 | > 100 | 0.493 | 16.6 | 0.84 | 14 | 1.68 | > 100 | 0.322 | 1.48 | 0.504 | > 49.9 | 1.16 | > 100 | 0.573 | > 100
2 | Cc1ccc(/C(C#N)=C/c2cccc([N+](=O)[O-])c2)cc1 | – | > 100 | – | 65 | – | > 100 | – | > 100 | – | > 100 | – | > 100 | – | > 100 | – | > 100 | – | > 100 | – | > 100
3 | COC(=O)c1cncc(/C=C/c2c(C)cc(O)cc2C)c1 | > 20.1 | > 25 | 6.91 | > 25 | 7.76 | 24.6 | 7.41 | > 18 | > 24.1 | > 25 | 14.1 | > 25 | 11 | > 25 | 8.31 | 22.1 | 14.6 | > 25 | 14.5 | > 25
4 | COC(=O)CCCCC(=O)c1c(C)[nH]c(/C=C2\N=C(c3ccc[nH]3)C=C2OC)c1C | 0.418 | 1.85 | 1.02 | 3.05 | 0.54 | 1.96 | 0.0416 | 0.135 | 0.87 | 2.38 | 0.802 | 2.17 | 1.15 | 2.47 | 0.456 | 1.83 | 1.73 | 3.33 | 0.334 | 1.24
5 | O=C(CC1(O)C(=O)N(Cc2ccccc2)c2ccccc21)c1ccc(C(=O)NCC2CCC3(CC2)OOC2(CCCCC2)OO3)cc1 (stereo not given) | 1.88 | 4.03 | 2.76 | 7.81 | 0.988 | 2.58 | 0.154 | 0.31 | 1.61 | 7.52 | 1.85 | 4.03 | 0.399 | 1.04 | 2.28 | 5.24 | 5.01 | 22.9 | 0.176 | 0.338
6 | CC1OC(OC2C(O)CC(OC3C(O)CC(OC4CCC5(C)C(CCC6C5CC(O)C5(C)C(C7=CC(=O)OC7)CCC65O)C4)OC3C)OC2C)CC(O)C1O (stereo not given) | 0.0309 | 0.101 | 0.042 | 2.3 | 0.0824 | 0.28 | 0.0428 | 0.164 | 0.137 | 0.295 | 0.0359 | 0.133 | 0.0427 | 0.15 | 0.128 | 0.346 | 0.126 | 0.256 | 0.0377 | 0.148
7 | CCCCCCNC(=O)Oc1ccc(/C(=C(\C)c2ccc(Cl)cc2)c2ccc(OCCN3CCCCC3)cc2)cc1 | 3.61 | 8.12 | 4.22 | 11.6 | 3.53 | 10.4 | 4.83 | 9.41 | 5.03 | 16 | 4.9 | 14 | 3.99 | 8.55 | 6.22 | 12.8 | 4.13 | 9.98 | 2.14 | 6.57
8 | Cn1cc(C2=C(c3cccc(OC[C@@H](O)CO)c3)C(=O)NC2=O)c2ccccc21 | 12.3 | > 25 | 1.39 | > 25 | 11 | > 25 | 14.8 | > 25 | > 25 | > 25 | > 25 | > 25 | > 19.4 | > 25 | > 25 | > 25 | > 25 | > 25 | > 19.1 | > 25
9 | Cc1cccc2c3c(sc12)C(c1ccc(Cl)cc1)C(C#N)=C(N)O3 (stereo not given) | 0.98 | 6.9 | 0.274 | 1.48 | 0.428 | 10.7 | 0.663 | 3.92 | 0.541 | 11.5 | 1.41 | 14.8 | 0.299 | 1.14 | 1.41 | 21 | 11.8 | 27.3 | 0.664 | 16.2
10 | C[C@]12CC[C@@H]3c4cc(OC(F)F)c(OS(N)(=O)=O)cc4CC[C@H]3[C@@H]1CC[C@@H]2O | 0.901 | 16.9 | 0.366 | 30.2 | 0.422 | 16.6 | 0.428 | 15.3 | 1.77 | > 62.8 | 1.49 | 60.3 | 0.333 | 4.58 | 3.34 | 38.7 | 3.76 | 25.8 | 0.769 | 26.6
11 | C(=N/N(Cc1ccccc1)Cc1ccccc1)/c1ccccc1 | > 100 | > 100 | 51.1 | > 100 | > 100 | > 100 | > 100 | > 100 | > 100 | > 100 | > 100 | > 100 | > 100 | > 100 | 25 | 72.6 | 96.9 | > 100 | > 100 | > 100
12 | CCC1(O)C(=O)OCc2c1cc1n(c2=O)Cc2cc3c(NC(=O)CN)cccc3nc2-1 (stereo not given) | 0.477 | > 26.2 | 28.9 | > 100 | 1.87 | 44.7 | 0.146 | 4.08 | 3.27 | 63.9 | 0.191 | 46.5 | 0.11 | 0.821 | 9.74 | 41.1 | 2.09 | 24.3 | 0.595 | 4.82
